IC50 and inhibition data for 27 compounds are collected here from US20260297092A1, “PYRAZOLOPYRIMIDINE DERIVATIVES AS INHIBITORS OF NLRP3” (Takeda Pharmaceutical Company Limited, priority 2023, published 2026).

The structures appear in SMILES notation.

In experiment [1] the test system is TNF-α (NF-κB pathway, THP-1 cells). In words: TNF-α Assay (IC50). It counts as cell-based, human. Conditions: Homo sapiens, 600 ng/mL LPS, 3 hours. An outline of the steps:
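Supernatant TNF-α quantified by ELISA after 3 h stimulation with 600 ng/mL LPS at 37 °C, following 30 min compound preincubation. Cells: IFN-differentiated (25 ng/mL, 24 h) THP-1 macrophages, 40,000/well, serum-free. IC50 by sigmoidal fit of % inhibition, with TPCA-1 as 100% control.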

Experiment [2] relates to NLRP3 inflammasome (IL-1β production in THP-1 cells). As to the kind of experiment: IL-1β TR-FRET Assay (percentage of inhibition at 300 nM, 6 μM or 10 μM). Particulars: Homo sapiens, LPS priming, ATP activation; for inhibition at 0.3 µM: THP-1, 300 nM, read-out: IL-1β inhibitory rate at 300 nM (%); for inhibition at 6 µM: THP-1, 6 μM, read-out: IL-1β inhibitory rate at 6 μM (%). It counts as cell-based, human. An outline of the steps: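 Percent inhibition of IL-1β used DMSO wells as 0% and 3 μM MCC-950 wells as full inhibition, with supernatant read by HTRF. Beforehand, IFN-γ-differentiated (25 ng/mL, 24 h), LPS-primed (50 ng/mL, 24 h) THP-1 cells received compound 30 min before inflammasome activation by 20 mM ATP for 2 h.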
(In general: TR-FRET usually uses a lanthanide donor and a delayed reading to cut background.)

As a reminder, the IC50 is the point on the concentration scale where inhibition reaches its midpoint. As to `CCOc1nc2nn(-c3c(C)cc(C4CC4)cc3C(F)F)cc2c(=O)[nH]1` [Example 216, 2-[4-cyclopropyl-2-(difluoromethyl)-6-methylphenyl]-6-ethoxy-2,5-dihydro-4H-pyrazo lo[3,4-d]pyrimidin-4-one], in experiment [1], the IC50 is above 30 µM. The inhibition at 0.3 µM in experiment [2] is 104%.

Take `CCOc1nc2nn(-c3c(F)cc(C)cc3Br)cc2c(=O)[nH]1` [Example 57, 2-(2-bromo-6-fluoro-4-methylphenyl)-6-ethoxy-2,5-dihydro-4H-pyrazolo[3,4-d]pyrimidin-4-one]: the IC50 in experiment [1] was above 30 µM. Moreover, in experiment [2], the inhibition at 0.3 µM is 99%.

In experiment [1], `CCOc1nc2nn(-c3c(F)cc(OC(F)F)cc3C(F)F)cc2c(=O)[nH]1` [Example 163, 2-[4-(difluoromethoxy)-2-(difluoromethyl)-6-fluorophenyl]-6-ethoxy-2,5-dihydro-4H-pyrazolo[3,4-d]pyrimidin-4-one] registered a 50% inhibitory concentration (IC50) above 30 µM. The inhibition at 0.3 µM in experiment [2] is 97%.

As to `CCOc1nc2nn(-c3c(C)cc(C4CC4)cc3C#N)cc2c(=O)[nH]1` [Example 179, 5-cyclo propyl-2-(6-ethoxy-4-oxo-4,5-dihydro-2H-pyrazolo[3,4-d]pyrimidin-2-yl)-3-methylbenzonitrile], the IC50 in experiment [1] is above 30 µM. For the same compound, the inhibition at 0.3 µM in experiment [2] came to 102%.

Take `CCOc1nc2nn(-c3ccc(C)cc3O)c(C)c2c(=O)[nH]1` [Example 127, 6-ethoxy-2-(2-hydroxy-4-methylphenyl)-3-methyl-2,5-dihydro-4H-pyrazolo[3,4-d]pyrimidin-4-one]: the IC50 in experiment [1] was above 30 µM. In addition, in experiment [2], the inhibition at 0.3 µM was 98%.

`CCOc1nc2nn(-c3ccc(Cl)cc3O)c(C)c2c(=O)[nH]1` [Example 60, 2-(4-chloro-2-hydroxyphenyl)-6-ethoxy-3-methyl-2,5-dihydro-4H-pyrazolo[3,4-d]pyrimidin-4-one]: the half-inhibitory concentration (IC50) in experiment [1] was above 30 µM. Also, in experiment [2], the inhibition at 0.3 µM came to 100%.

Consider `O=c1[nH]c([C@@H]2COCCO2)nc2nn(-c3c(F)cc(C4CC4)cc3C(F)F)cc12` (single isomer, unassigned) [Example 313, 2-[4-cyclopropyl-2-(difluoromethyl)-6-fluorophenyl]-6-[(2S)-1,4-dioxan-2-yl]-2,5-dihydro-4H-pyrazolo[3,4-d]pyrimidin-4-one or 2-[4-cyclopropyl-2-(difluoromethyl)-6-fluorophenyl]-6-[(2R)-1,4-dioxan-2-yl]-2,5-dihydro-4H-pyrazolo[3,4-d]pyrimidin-4-one], for which the IC50 in experiment [1] is above 30 µM. The inhibition at 6 µM in experiment [2] was 104%.

In experiment [1], `CCOc1nc2nn(-c3c(F)cc(C)cc3C(F)F)cc2c(=O)[nH]1` [Example 63, 2-[2-(difluoromethyl)-6-fluoro-4-methylphenyl]-6-ethoxy-2,5-dihydro-4H-pyrazolo[3,4-d]pyrimidin-4-one] came in with a 50% inhibitory concentration (IC50) above 30 µM. Moreover, the inhibition at 0.3 µM in experiment [2] amounted to 100%.

In experiment [1], `CCOc1nc2nn(-c3c(C)cc(OC(F)F)cc3Br)cc2c(=O)[nH]1` [Example 142, 2-[2-bromo-4-(difluoromethoxy)-6-methylphenyl]-6-ethoxy-2,5-dihydro-4H-pyrazolo[3,4-d]pyrimidin-4-one] displayed a half-inhibitory concentration (IC50) above 30 µM. The inhibition at 0.3 µM in experiment [2] turned out to be 93%.

`COCCOc1nc2nn(-c3c(C)cc(Br)cc3C)cc2c(=O)[nH]1` [Example 175, 2-(4-bromo-2,6-dimethylphenyl)-6-(2-methoxyethoxy)-2,5-dihydro-4H-pyrazolo[3,4-d]pyrimidin-4-one] had an IC50 in experiment [1] above 30 µM. In addition, the inhibition at 0.3 µM in experiment [2] was found to be 112%.

Regarding `CCOc1nc2nn(-c3c(C)cc(Br)cc3C(F)F)cc2c(=O)[nH]1` [Example 213, 2-[4-bromo-2-(difluoromethyl)-6-methylphenyl]-6-ethoxy-2,5-dihydro-4H-pyrazolo[3,4-d]pyrimidin-4-one], the IC50 in experiment [1] is above 30 µM. Moreover, the inhibition at 0.3 µM in experiment [2] was determined as 104%.

On to `COc1nc2nn(-c3c(C)cc(C4(F)CC4)cc3F)cc2c(=O)[nH]1` [Example 208, 2-[2-fluoro-4-(1-fluorocyclopropyl)-6-methylphenyl]-6-methoxy-2,5-dihydro-4H-pyrazolo[3,4-d]pyrimidin-4-one], for which the IC50 in experiment [1] is above 30 µM. The inhibition at 0.3 µM in experiment [2] was 102%.

For the compound `Cc1cc(C)c(-n2cc3c(=O)[nH]c(-c4ccn(C)n4)nc3n2)c(O)c1` [Example 23, 2-(2-hydroxy-4,6-dimethylphenyl)-6-(1-methyl-1H-pyrazol-3-yl)-2,5-dihydro-4H-pyrazolo[3,4-d]pyrimidin-4-one], in experiment [1], the half-maximal inhibitory concentration (IC50) was above 30 µM. For the same compound, the inhibition at 0.3 µM in experiment [2] was 100%.

The compound `CCOc1nc2nn(-c3ncc(C4CC4)cc3C)cc2c(=O)[nH]1` [Example 154, 2-(5-cyclopropyl-3-methylpyridin-2-yl)-6-ethoxy-2,5-dihydro-4H-pyrazolo[3,4-d]pyrimidin-4-one] showed a concentration for half-maximal inhibition (IC50) in experiment [1] above 30 µM. In addition, in experiment [2], the inhibition at 0.3 µM stood at 93%.

On to `CCOc1nc2nn(-c3ccc(C)cc3OCC(F)F)cc2c(=O)[nH]1` [Example 98, 2-[2-(2,2-difluoroethoxy)-4-methylphenyl]-6-ethoxy-2,5-dihydro-4H-pyrazolo[3,4-d]pyrimidin-4-one], for which the IC50 in experiment [1] was above 30 µM. Besides, the inhibition at 0.3 µM in experiment [2] was found to be 44%.

Turning to `CCOc1nc2nn(-c3c(F)cc(C4CC4)cc3F)c(C)c2c(=O)[nH]1` [Example 123, 2-(4-cyclopropyl-2,6-difluorophenyl)-6-ethoxy-3-methyl-2,5-dihydro-4H-pyrazolo[3,4-d]pyrimidin-4-one], in experiment [1], the half-maximal inhibitory concentration (IC50) is above 30 µM. In addition, in experiment [2], the inhibition at 0.3 µM was 95%.

As for `COCCOc1nc2nn(-c3c(F)cc(C4CC4)cc3C(F)F)cc2c(=O)[nH]1` [Example 186, 2-[4-cyclopropyl-2-(difluoromethyl)-6-fluorophenyl]-6-(2-methoxyethoxy)-2,5-dihydro-4H-pyrazolo[3,4-d]pyrimidin-4-one], the concentration for half-maximal inhibition (IC50) in experiment [1] is above 30 µM. Further, the inhibition at 0.3 µM in experiment [2] is 100%.

In experiment [1], `Cc1cc(C2CC2)cc(C)c1-n1cc2c(=O)[nH]c(C3CC(F)(F)C3)nc2n1` [Example 262, 2-(4-cyclopropyl-2,6-dimethylphenyl)-6-(3,3-difluorocyclobutyl)-2,5-dihydro-4H-pyrazolo[3,4-d]pyrimidin-4-one] yielded a 50% inhibitory concentration (IC50) above 30 µM. For the same compound, the inhibition at 6 µM in experiment [2] stood at 100%.

Compound `CCOc1nc2nn(-c3c(O)cc(C)cc3F)c(C)c2c(=O)[nH]1` [Example 51, 6-ethoxy-2-(2-fluoro-6-hydroxy-4-methylphenyl)-3-methyl-2,5-dihydro-4H-pyrazolo[3,4-d]pyrimidin-4-one] displayed an IC50 in experiment [1] above 30 µM. For the same compound, the inhibition at 0.3 µM in experiment [2] was determined as 100%.

Regarding `Cc1cc(C2CC2)cc(C)c1-n1cc2c(=O)[nH]c(O[C@H]3CCOC3)nc2n1` [Example 286, 2-(4-cyclopropyl-2,6-dimethylphenyl)-6-{[(3S)-oxolan-3-yl]oxy}-2,5-dihydro-4H-pyrazolo [3,4-d]pyrimidin-4-one], the IC50 in experiment [1] is above 30 µM. For the same compound, in experiment [2], the inhibition at 6 µM was determined as 98%.

`COCCOc1nc2nn(-c3c(C)cc(C4CC4)cc3CC(F)(F)F)cc2c(=O)[nH]1` [Example 231, 2-[4-cyclopropyl-2-methyl-6-(2,2,2-trifluoroethyl)phenyl]-6-(2-methoxyethoxy)-2,5-dihydro-4H-pyrazolo[3,4-d]pyrimidin-4-one] yielded an IC50 in experiment [1] above 30 µM. The inhibition at 6 µM in experiment [2] amounted to 90%.

In experiment [1], `Cc1cc(C2CC2)cc(C)c1-n1cc2c(=O)[nH]c(-c3cnn(C)n3)nc2n1` [Example 258, 2-(4-cyclopropyl-2,6-dimethylphenyl)-6-(2-methyl-2H-1,2,3-triazol-4-yl)-2,5-dihydro-4H-pyrazolo[3,4-d]pyrimidin-4-one] had a half-maximal inhibitory concentration (IC50) above 30 µM. In addition, the inhibition at 6 µM in experiment [2] is 100%.

Consider `Cc1cc(C)c(-n2cc3c(=O)[nH]c(-c4ccc(F)cn4)nc3n2)c(O)c1` [Example 13, 6-(5-fluoropyridin-2-yl)-2-(2-hydroxy-4,6-dimethylphenyl)-2,5-dihydro-4H-pyrazolo[3,4-d]pyrimidin-4-one], for which, in experiment [1], the IC50 is above 30 µM. Moreover, the inhibition at 0.3 µM in experiment [2] was 99%.

Regarding `CCOc1nc2nn(-c3ccc(C)cc3O)cc2c(=O)[nH]1` [Example 56, 6-ethoxy-2-(2-hydroxy-4-methylphenyl)-2,5-dihydro-4H-pyrazolo[3,4-d]pyrimidin-4-one], the IC50 in experiment [1] is above 30 µM. Moreover, in experiment [2], the inhibition at 0.3 µM came out at 100%.

In experiment [1], `CCOc1nc2nn(-c3c(F)cc(C)c(F)c3C)cc2c(=O)[nH]1` [Example 92, 2-(3,6-difluoro-2,4-dimethylphenyl)-6-ethoxy-2,5-dihydro-4H-pyrazolo[3,4-d]pyrimidin-4-one] returned an IC50 above 30 µM. In addition, the inhibition at 0.3 µM in experiment [2] turned out to be 82%.

In experiment [1], `COC1(c2nc3nn(-c4c(C)cc(C5CC5)cc4C)cc3c(=O)[nH]2)CCC1` [Example 277, 2-(4-cyclopropyl-2,6-dimethylphenyl)-6-(1-methoxycyclobutyl)-2,5-dihydro-4H-pyrazolo[3,4-d]pyrimidin-4-one] returned a half-inhibitory concentration (IC50) above 30 µM. The inhibition at 6 µM in experiment [2] was 96%.

As for `CCOc1nc2nn(-c3c(C)cc(C)cc3O)cc2c(=O)[nH]1` [Example 1, 6-ethoxy-2-(2-hydroxy-4,6-dimethylphenyl)-2,5-dihydro-4H-pyrazolo[3,4-d]pyrimidin-4-one], the IC50 in experiment [1] is above 30 µM. The inhibition at 0.3 µM in experiment [2] worked out at 100%.
